From patent US20150250826A1, “ISOLATION AND CHARACTERIZATION OF MUSCLE REGENERATING CELLS” (Joslin Diabetes Center, Inc., priority 2012, published 2015) come the findings set out here.

What all share (format): cell-based
The test system of experiment [1] is human rhabdomyosarcoma cell line RD. The experiment can be described thus: In vitro growth assay (MTT) in human rhabdomyosarcoma cell line RD. The following applies: 96 hours. The source says:
(§1) FIG. 8: In vitro screening of candidate targets. Sarcoma cells were exposed to increasing concentrations of Torin (10, 50, 250 nMol), Rapamycin (10, 50, 100 nMol), RL0061425 (10, 50, 100, 500, 1000 nMol), SB525334 (1, 10, 50, 100, 500 nMol), SD208 (10, 50, 100, 500, 1000 nMol), and Ethanol and DMSO (as a control).
To begin to evaluate the effects of candidate target genes in sarcoma cells, we have established in vitro assays in which the proliferation of sarcoma cell lines exposed to selected chemical compounds is measured by MTT (3-(4,5-Dimethylthiazol-2-yl)-2,5-diphenyltretrazolium bromide) assay at defined time points. All experiments are carried out in low-passage cell lines established from modeled Kras rhabdomyosarcomas of satellite cell origin. For comparison, we also studied the effects of these compounds in the human embryonal rhabdomyosarcoma cell line RD. In these studies, we focused first on a small set of readily available chemical compounds (obtained from D. Guertin and L. Rubin at the University of Massachusetts and the Harvard Stem Cell Institute, respectively), whose targets include the TGFβ and mammalian target of rapamycin (mTOR) signaling pathways. […]

Experiment [2] relates to mouse Kras; p16p19null sarcoma line. The experiment can be described thus: In vitro growth assay (MTT) in mouse Kras; p16p19null sarcoma line. Particulars: 96 hours.
Text: as §1
(§2) To begin to evaluate the effects of candidate target genes in sarcoma cells, we have established in vitro assays in which the proliferation of sarcoma cell lines exposed to selected chemical compounds is measured by MTT (3-(4,5-Dimethylthiazol-2-yl)-2,5-diphenyltretrazolium bromide) assay at defined time points. All experiments are carried out in low-passage cell lines established from modeled Kras rhabdomyosarcomas of satellite cell origin. For comparison, we also studied the effects of these compounds in the human embryonal rhabdomyosarcoma cell line RD. In these studies, we focused first on a small set of readily available chemical compounds (obtained from D. Guertin and L. Rubin at the University of Massachusetts and the Harvard Stem Cell Institute, respectively), whose targets include the TGFβ and mammalian target of rapamycin (mTOR) signaling pathways. As discussed above, the TGFβ pathway was implicated in sarcoma pathogenesis by our prior bioinformatics analyses. mTOR was tested as well because Ras pathway activation has been reported to promote mTOR signaling (Carriere, A., Romeo, Y., Acosta-Jaquez, H. A., Moreau, J., Bonneil, E., Thibault, P. Fingar, D. C., Roux, P. P., ERK1/2 Phosphorylate Raptor to Promote Ras-dependent Activation of mTOR Complex 1 (mTORC1). J Biol Chem 286 (1), 567 (2011)), and many genes on our list appear to interact with this signaling pathway (data not shown). Finally, gene ontology analyses of the 146 sarcoma-associated genes discussed above identified 61 genes that function in cell growth and proliferation (i.e., key cellular activities often regulated by mTOR).
(§3) Cell lines from the modeled sarcomas were exposed to graded concentrations of mTOR inhibitors (Rapamycin, Torin) or TGF inhibitors (RL0061425, SB525334, SD208). […]

For experiment [3], the system named is mouse Kras; p16p19null rhabdomyosarcoma cell line. The experiment in a line: In vitro growth assay (MTT) in mouse Kras; p16p19null rhabdomyosarcoma cell line. Particulars: 48 hours.
Text: as §1, §2, §3

Setting [4] is: tested at 10, 50, 100, 500, 1000 nMol.

Consider Torin, for which the “cell growth (fold-increase in MTT-uptake)” value in experiment [1] (250 nMol), in experiment [2] (250 nMol) and in experiment [3] (250 nMol) was “reduced the growth” throughout.

As to `Fc1ccc(Cl)cc1-c1nc(Nc2ccncc2)c2nccnc2n1` [SD208], the “concentration at which growth was inhibited (MTT-uptake)” value in experiment [2] (setting [4]) and in experiment [3] (setting [4]) was at least 500 nmol each time.

`Cc1cccc(-c2[nH]c(C(C)(C)C)nc2-c2ccc3nccnc3c2)n1` [SB525334]: the “cell growth (fold-increase in MTT-uptake)” value in experiment [1] (1, 10, 50, 100, 500 nMol) is “no major effect”; in experiment [2] (1, 10, 50, 100, 500 nMol), “no major effect”; in experiment [3] (1, 10, 50, 100, 500 nMol), “no major effect”.
